Measurements published in PubChem BioAssay (NCI).
Several values for one entry are separate records, joined by “and”; a condition that tells them apart may be missing. Identical values can stand only once.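 How tested: cells in 96-well plates exposed to compound for 48 hours at five concentrations. GI50 is the concentration that inhibits growth by half. At the TGI there is no net growth.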 Where a SMILES comes first, the peptide text is derived from it. [ ]: non-standard residue; d: D form. The star is where a group is joined. NMeF = CN[CH](Cc1ccccc1)C(=O)O; NMeV = CN[CH](C(=O)O)C(C)C; Boc = CC(C)(C)OC(=O)*

Key:
Test in all cases: NCI tumour cell line growth inhibition, 48 h
DMS 273 small cell lung = system: DMS 273 small cell lung
XF 498 CNS = system: XF 498 CNS
M19-MEL melanoma = system: M19-MEL melanoma
LXFL 529 NSCLC = system: LXFL 529 NSCLC
NCI/ADR-RES ovarian = system: NCI/ADR-RES ovarian
PC-3 prostate = system: PC-3 prostate
T-47D breast = system: T-47D breast
MDA-MB-435 = system: MDA-MB-435
HS 578T breast = system: HS 578T breast
BT-549 breast = system: BT-549 breast

## COC(=O)/C(=N\Nc1nnc(C)n1N)C(C#N)c1ccc(Cl)cc1 (centres undefined)
DMS 273 small cell lung
  TGI: > 100 µM
XF 498 CNS
  TGI: > 100 µM
M19-MEL melanoma
  TGI: > 100 µM
LXFL 529 NSCLC
  TGI: > 100 µM

## O=C1C2C3C=C4c5ccccc5N(c5ccccc5)C4(C2C(=O)N1Cc1ccccc1)C1C(=O)N(Cc2ccccc2)C(=O)C31 (centres undefined)
XF 498 CNS
  TGI: > 100 µM
M19-MEL melanoma
  TGI: > 100 µM
LXFL 529 NSCLC
  TGI: > 100 µM

## Nn1c(=O)n(Cc2ccccc2)n(-c2ccccc2)c1=O
DMS 273 small cell lung
  TGI: > 100 µM
XF 498 CNS
  TGI: > 100 µM
LXFL 529 NSCLC
  TGI: > 100 µM

## CC1(C)SCc2nc3ncccc3n21
XF 498 CNS
  TGI: > 100 µM
M19-MEL melanoma
  TGI: > 100 µM
LXFL 529 NSCLC
  TGI: > 100 µM

## COc1cc2c(c(OC)c1OC)-c1ccc(OC)c(=O)cc1[C@@H](NC(=O)c1ccccc1)CC2
NCI/ADR-RES ovarian
  TGI: 1150 nM and 1050 nM
XF 498 CNS
  TGI: 3.86 µM
PC-3 prostate
  GI50: < 3 nM
  TGI: 30 µM and > 56.5 µM
M19-MEL melanoma
  TGI: > 100 µM
T-47D breast
  GI50: > 30 µM
  TGI: > 100 µM
LXFL 529 NSCLC
  TGI: > 100 µM
MDA-MB-435
  GI50: < 3 nM
  TGI: < 3 nM
HS 578T breast
  GI50: < 3 nM
BT-549 breast
  GI50: < 3 nM
  TGI: 30 µM

## COC(=O)C1=C(C)N(NC(=O)OC(C)(C)C)C(=O)C1=P(c1ccccc1)(c1ccccc1)c1ccccc1
DMS 273 small cell lung
  TGI: > 100 µM
XF 498 CNS
  TGI: > 100 µM
M19-MEL melanoma
  TGI: > 100 µM
LXFL 529 NSCLC
  TGI: > 100 µM

## Cc1cn(C2CC(O)C(CO)O2)c(=O)n2nnnc12 (centres undefined)
DMS 273 small cell lung
  TGI: > 100 µM
M19-MEL melanoma
  TGI: > 100 µM
LXFL 529 NSCLC
  TGI: > 100 µM

## COC1(OC)C2(Cl)C(Cl)=C(Cl)C1(Cl)C1C=CC=CC12 (centres undefined)
DMS 273 small cell lung
  TGI: > 100 µM
XF 498 CNS
  TGI: > 100 µM
M19-MEL melanoma
  TGI: > 100 µM
LXFL 529 NSCLC
  TGI: > 100 µM

## c1ccc(CNn2nnc3ccccc32)cc1
DMS 273 small cell lung
  TGI: > 100 µM
XF 498 CNS
  TGI: > 100 µM
M19-MEL melanoma
  TGI: > 100 µM
LXFL 529 NSCLC
  TGI: > 100 µM

## Cc1ccc(C2=C(c3ccccc3)C(Br)(c3ccc(C)cc3)C(c3ccccc3)=C2c2ccc(C)cc2)cc1
DMS 273 small cell lung
  TGI: > 100 µM
XF 498 CNS
  TGI: > 100 µM
M19-MEL melanoma
  TGI: > 100 µM
LXFL 529 NSCLC
  TGI: > 100 µM

## CC(C)C(Nc1c2ccccc2nc2ccccc12)C(=O)O (centres undefined)
DMS 273 small cell lung
  TGI: > 100 µM
XF 498 CNS
  TGI: > 100 µM
M19-MEL melanoma
  TGI: > 100 µM
LXFL 529 NSCLC
  TGI: > 100 µM

## COc1cc(C=C2C(=O)NC(=O)NC2=O)cc(OC)c1OC
DMS 273 small cell lung
  TGI: > 100 µM
XF 498 CNS
  TGI: > 100 µM
M19-MEL melanoma
  TGI: > 100 µM
LXFL 529 NSCLC
  TGI: > 100 µM

## Cc1cc(Cl)ccc1N=C1NC(=O)C(CC(=O)Nc2ccc([N+](=O)[O-])cc2[N+](=O)[O-])S1 (centres undefined)
DMS 273 small cell lung
  TGI: 82.7 µM
XF 498 CNS
  TGI: 53.6 µM
M19-MEL melanoma
  TGI: 75.4 µM
LXFL 529 NSCLC
  TGI: 47.5 µM

## O=C(O)C1OC(n2cc(F)c(=O)[nH]c2=O)CC1O (centres undefined)
DMS 273 small cell lung
  TGI: > 100 µM
NCI/ADR-RES ovarian
  TGI: > 100000 nM
XF 498 CNS
  TGI: > 100 µM
PC-3 prostate
  TGI: > 100 µM
M19-MEL melanoma
  TGI: > 100 µM
T-47D breast
  TGI: > 100 µM
LXFL 529 NSCLC
  TGI: > 100 µM
MDA-MB-435
  TGI: > 100000 nM
HS 578T breast
  TGI: > 100 µM
BT-549 breast
  TGI: > 100 µM

## O=C1CCN2C(=O)CCN12
XF 498 CNS
  TGI: > 100 µM
M19-MEL melanoma
  TGI: > 100 µM
LXFL 529 NSCLC
  TGI: > 100 µM

## COc1cc2c(cc1OC)C(CC(=O)NN=C(C)C)NCC2 (centres undefined)
DMS 273 small cell lung
  TGI: > 100 µM
XF 498 CNS
  TGI: > 100 µM
M19-MEL melanoma
  TGI: > 100 µM
LXFL 529 NSCLC
  TGI: > 100 µM

## O=C(Cc1ccccc1)NN1C(=O)C(Cl)C1c1cc(Br)ccc1O (centres undefined)
DMS 273 small cell lung
  TGI: > 100 µM
XF 498 CNS
  TGI: > 100 µM
M19-MEL melanoma
  TGI: 23.3 µM
LXFL 529 NSCLC
  TGI: > 100 µM

## Cc1nc(N)sc1C(=O)/C=C\c1ccc2c(c1)OCO2
DMS 273 small cell lung
  TGI: > 100 µM
XF 498 CNS
  TGI: > 100 µM
M19-MEL melanoma
  TGI: > 100 µM
LXFL 529 NSCLC
  TGI: > 100 µM

## NCCCCN(CCCN)/[N+]([O-])=N\O
DMS 273 small cell lung
  TGI: > 100 µM
M19-MEL melanoma
  TGI: > 100 µM
LXFL 529 NSCLC
  TGI: > 100 µM

## Cn1c(=O)c(C(c2ccc([N+](=O)[O-])cc2)c2c(O)c3ccccc3n(C)c2=O)cc2ccccc21 (centres undefined)
DMS 273 small cell lung
  TGI: > 100 µM
XF 498 CNS
  TGI: > 100 µM
M19-MEL melanoma
  TGI: > 100 µM
LXFL 529 NSCLC
  TGI: > 100 µM

## C1=CC2SSSC2C1 (centres undefined)
DMS 273 small cell lung
  TGI: > 100 µM
XF 498 CNS
  TGI: > 100 µM
M19-MEL melanoma
  TGI: > 100 µM
LXFL 529 NSCLC
  TGI: > 100 µM

## CC1CC[C@]2(C(=O)O)CCC3(C)C(=CC(=O)C4[C@@]5(C)CCC(=O)C(C)(C)C5CC[C@]43C)[C@@H]2[C@H]1C (some centres undefined)
XF 498 CNS
  TGI: 29.5 µM
M19-MEL melanoma
  TGI: 71.3 µM
LXFL 529 NSCLC
  TGI: > 100 µM

## COc1cc(C(C)O)c[n+](CCc2c[nH]c3ccccc23)c1 (centres undefined)
DMS 273 small cell lung
  TGI: > 100 µM
XF 498 CNS
  TGI: > 100 µM
M19-MEL melanoma
  TGI: > 100 µM
LXFL 529 NSCLC
  TGI: > 100 µM

## O=C1OC(c2ccccc2)=N/C1=C\c1cccc2ccccc12
DMS 273 small cell lung
  TGI: > 100 µM
XF 498 CNS
  TGI: > 100 µM
M19-MEL melanoma
  TGI: > 100 µM
LXFL 529 NSCLC
  TGI: > 100 µM

## CC(C)C(NC(=O)OC(C)(C)C)C(=O)N(C)C(Cc1ccccc1)C(=O)N(C)C(C(=O)O)C(C)C (stereo not drawn) (Boc-Val-[NMeF]-[NMeV]-OH; configuration not given here)
DMS 273 small cell lung
  TGI: > 100 µM
XF 498 CNS
  TGI: > 100 µM
M19-MEL melanoma
  TGI: > 100 µM
LXFL 529 NSCLC
  TGI: > 100 µM

## CCOc1ccccc1N=Nc1ccc2oc(=O)c(C(=O)Nc3cccc(C)c3)cc2c1
DMS 273 small cell lung
  TGI: > 100 µM
XF 498 CNS
  TGI: > 100 µM
M19-MEL melanoma
  TGI: 93.4 µM
LXFL 529 NSCLC
  TGI: > 100 µM

## CC(=O)/C(C)=N/NC(=O)c1ccccc1O
DMS 273 small cell lung
  TGI: > 10 µM
NCI/ADR-RES ovarian
  TGI: > 100000 nM
XF 498 CNS
  TGI: > 10 µM
PC-3 prostate
  TGI: > 100 µM
M19-MEL melanoma
  TGI: > 10 µM
T-47D breast
  TGI: > 100 µM
LXFL 529 NSCLC
  TGI: > 10 µM
MDA-MB-435
  TGI: > 100000 nM
HS 578T breast
  TGI: > 100 µM
BT-549 breast
  TGI: > 100 µM

## C[C@@H]1CC(=O)C2CCCC1C2=O (some centres undefined)
DMS 273 small cell lung
  TGI: > 100 µM
M19-MEL melanoma
  TGI: > 100 µM
LXFL 529 NSCLC
  TGI: > 100 µM

## Cc1ccn2c(c1)nc1nc3ccccc3nc12
DMS 273 small cell lung
  TGI: > 100 µM
XF 498 CNS
  TGI: > 100 µM
M19-MEL melanoma
  TGI: > 100 µM
LXFL 529 NSCLC
  TGI: > 100 µM

## CC1(C)C(=O)N(CCCCCCN2C(=O)C(C)(C)c3ccccc32)c2ccccc21
DMS 273 small cell lung
  TGI: > 100 µM
XF 498 CNS
  TGI: 53.6 µM
M19-MEL melanoma
  TGI: 65.2 µM
LXFL 529 NSCLC
  TGI: > 100 µM

## COc1cccc2c1C(=O)c1c(O)c3c(c(O)c1C2=O)C[C@@](O)(C(C)=O)C[C@@H]3OC1OC(C)C(O)C(N)C1Br (some centres undefined)
DMS 273 small cell lung
  TGI: 0.268 µM and 0.151 µM
XF 498 CNS
  GI50: 76.6 nM
  TGI: 0.414 µM and 0.423 µM
PC-3 prostate
  TGI: 1.03 µM
M19-MEL melanoma
  TGI: 0.364 µM and 0.328 µM
T-47D breast
  TGI: 0.74 µM
LXFL 529 NSCLC
  TGI: 1.12 µM
MDA-MB-435
  TGI: 1130 nM
BT-549 breast
  TGI: 0.913 µM

## COc1ccc(C(=O)C(C(=O)CCC(=O)Nc2cccc(Cl)c2)c2ccc(OC)cc2)cc1 (centres undefined)
DMS 273 small cell lung
  TGI: > 100 µM
XF 498 CNS
  TGI: > 100 µM
M19-MEL melanoma
  TGI: > 100 µM
LXFL 529 NSCLC
  TGI: > 100 µM

## COc1ccccc1CCc1cc(OC)c(OC)c(OC)c1
DMS 273 small cell lung
  TGI: > 100 µM
XF 498 CNS
  TGI: 84.8 µM
M19-MEL melanoma
  TGI: > 100 µM
LXFL 529 NSCLC
  TGI: > 100 µM

## CCOC(=O)CC1(C(=O)OCC)c2[nH]c3ccccc3c2CCN1Cc1ccccc1 (centres undefined)
DMS 273 small cell lung
  TGI: 32 µM
XF 498 CNS
  TGI: 41.4 µM
M19-MEL melanoma
  TGI: 27.6 µM
LXFL 529 NSCLC
  TGI: > 100 µM
